Publication PMC10045534, “Preparation and Evaluation of 6-Gingerol Derivatives as Novel Antioxidants and Antiplatelet Agents” (Antioxidants, 2023)

What was measured:
[1] = Kinetic aqueous solubility in PBS pH 7.4; type: physicochemical; details: after 2 h at 37 °C in PBS, 500 μM target concentration, mean ± SEM, n = 3; for solubility kinetic at 2 h: PBS (pH 7.4), 37 °C, pH 7.4, aqueous buffer, kinetic from dmso stock
Procedure: (§1) Preparative purifications over RP-HPLC were performed on a Kinetex XB C18 (5 μm, 250 × 21.2 mm) column on an Armen Spot Prep II integrated HPLC purification system (Gilson, Middleton, WI, USA) with dual-wavelength detection, with an adequately chosen combination of acetonitrile–water, and a flow rate of 15 mL/min. The purity of the compounds obtained was determined by RP-HPLC analyses on a system of two Jasco PU 2080 pumps, a Jasco AS-2055 Plus intelligent sampler connected to a JASCO LC-Net II/ADC equipped with a Jasco MD-2010 Plus PDA detector (Jasco International Co. Ltd., Hachioji, Tokyo, Japan) utilizing a Kinetex C-18 (5 μm, 250 × 4.6 mm) column (Phenomenex Inc., Torrance, CA, USA) and applying a gradient of 30%–100% aqueous AcN in 30 min followed by 100% ACN for 10 min with a flow rate of 1 mL/min. Analysis of samples from the PAMPA and kinetic solubility assays was performed the same way, by using 3-point calibrations and integrating each compound at its UV absorption maximum.
In a 96-well polypropylene plate (Greiner Bio-One, Kremsmünster, Austria), 15 μL stock solutions were added to 285 μL PBS (pH 7.4) to make starting donor solution with 500 μM as target concentration. For each sample, 3 replicates were measured. The samples were covered and shaken at 37 °C, 300 rpm for 2 h (Heidolph Titramax 1000, Heidolph Instruments GmbH & Co. KG, Schwabach, Germany). After that, each sample was transferred into a filter plate (MSSBLPC, Multiscreen Filter plate, Merck kGaA) and filtered (Vaccum Manifold, Merck kGaA, Darmstadt, Germany). The filtrates were transferred into HPLC vials, and acetonitrile (AcN) was added to aliquot to avoid precipitation. The final solvent ratio was AcN:PBS (70:30). Filtrate concentration was determined by HPLC-UV (see Section 2.1) using 3-points calibration.

PAMPA-BBB permeability = type: in vitro ADME; details: after 4 h at 37 °C in PBS, pH 7.4, mean ± SEM, n = 3; for Papp at 4 h, 500 μM: PAMPA, read-out: PAMPA-BBB Pe
Procedure: as §1
Blood–brain barrier-specific (BBB) permeability measurements were carried out us- ing the PAMPA-BBB model. […] The solutions were sonicated for 10 min at room temperature. To prepare the artificial BBB-specific membrane, 16 mg BPLE were dissolved in 600 μL of n-dodecane:n-hexane (25:75). Each well of the donor plate (MultiscreenTM-IP, MAIPNTR10, pore size […], Merck kGaA) was coated with 5 μL lipid solution and fitted into the acceptor plate containing 300 μL PBS (pH 7.4) with 5% DMSO, and 150–150 μL of the PBS solutions (made from the DMSO stock solutions) were placed on the donor plate’s artificial membrane. The sandwich plate system was covered with a tissue of wet paper and a plastic lid to avoid evaporation of the solvent, and it was incubated at 37 °C for 4 h. In the end, the initial 500 μM solutions ( cD0 ), the donor ( cDt ) and acceptor solution ( cAt ) were analysed by HPLC-UV (see Section 2.1). BBB permeability was calculated using the effective permeability equation used for iso-pH conditions described by A. Avdeef as follows. (2) Pe=−2.303/A·t−τss·1/1+rv·lg−rv+1+rv/1−MR·cDt/cD0 (3) MR=1−cDt/cD0−VAcAt/VDcD0 where A is the filter area (0.3 cm^2), VD and VA are the volumes in the donor (0.15 cm^3) and acceptor phase (0.3 cm^3), t is the incubation time (s), τss is the time to reach steady state (s), cDt is the concentration of the compound in the donor phase at time point t (mol/cm^3), cD0 is the concentration of the compound in the donor phase at time point zero (mol/cm^3), cAt is the concentration of the compound in the acceptor phase at time point t (mol/cm^3), rv is the aqueous compartment volume ratio (VD/VA).

washed human platelets = assay: Arachidonic acid-induced platelet aggregation (turbidimetric aggregometer); type: cell-based; details: for IC50: Platelet, 0.05 h, washed human platelets treated 3 min, then arachidonic acid (100 μM), mean ± SEM, n = 3, read-out: Antiplatelet IC50
Procedure: All bioactivity data processing, including the calculation of inhibition percentage, mean and corresponding standard error of the mean (SEM), and IC50 values, was performed by GraphPad Prism 8.0 (La Jolla, CA, USA). IC50 values were calculated from the sigmoidal dose–response curves obtained by the log(inhibitor) vs. response and variable slope (DPPH assay) or the log(inhibitor) vs. normalised response and variable slope nonlinear regression model. On the results obtained, no statistical evaluation was performed; instead, differences greater than two-fold were considered relevant. Plotting of the antiplatelet and COX-1 inhibitory IC50 values and the linear regression of the data was performed by Microsoft Excel.
Human platelet suspension (3 × 10^8/mL in Tyrode’s buffer) was prepared as previously described. The protocol for this study was approved by the institutional review board of Kaohsiung Medical University Hospital (Kaohsiung City, Taiwan). Platelets pre-treated with DMSO (vehicle control) or test compounds were stimulated with arachidonic acid (AA), and platelet aggregation was measured using turbidimetric aggregometer (Chrono-Log Co., Havertown, PA, USA) at 37 °C under stirring conditions (1200 rpm).

[2] = Oxygen radical absorbance capacity (ORAC); details: 1 µM sample; mean ± SEM, n = 3
Procedure: AAPH ((2,20-Azobis(2-methyl-propionamidine) dihydrochloride) free radical and Trolox standard were purchased from Sigma-Aldrich Hungary. Fluorescein was purchased from Fluka Analytical, Tokyo, Japan. ORAC assay was carried out In a 96-well microplate based on the method from previous study. Briefly, 20 µL of the samples (1 µM final concentration, dissolved in phosphate buffer, pH = 7.4, containing 1% MeOH) were mixed with 60 µL of AAPH (12 mM final concentration, dissolved in phosphate buffer, pH = 7.4) and 120 µL of fluorescein solution (70 nM final concentration, dissolved in phosphate buffer), then the fluorescence was measured (excitation at λ = 485 nm, and emission at λ = 520 nm) through 3 h with 1.5-min cycle intervals with a BMG Labtech FluoStar Optima plate-reader. All experiments were carried out in triplicate, and Trolox was used as standard. The antioxidant capacity is expressed as Trolox Equivalent (TE), as calculated using GraphPad Prism 8.0 (La Jolla, CA, USA).

Row | Compound | solubility kinetic at 2 h [1] | Papp at 4 h, 500 μM (PAMPA-BBB permeability) | PAMPA-BBB MR (%) (PAMPA-BBB permeability) | PAMPA-BBB Pe (PAMPA-BBB permeability) | IC50 (washed human platelets) | Kinetic Solubility [1] | ORAC TE [2] | times weaker antiplatelet effect than the most promising compounds (washed human platelets; AA-induced platelet aggregation, ratio of IC50 values) | antiplatelet activity (in words) (washed human platelets; AA-induced platelet aggregation)
1 | CCCCC/C=C/C(=O)CCc1ccc(O)c(OC)c1 [Compound 2, 6-shogaol] | > 100 µM | 3.17 ± 0.36 ×10⁻⁶ cm/s | 20.9 ± 3.9% | ≥ 25 ·10^−7 cm/s | 2.8 ± 0.5 µM | – | 1.10 ± 0.03 Trolox equivalents (TE) | – | –
2 | CCCCCCCC(CCc1ccc(O)c(OC)c1)=NO [Compound 4, 1-(4-hydroxy-3-methoxyphenyl)decan-3-one oxime] | 75.1 ± 7.3 µM | – | -/4.0 ± 11.1% | – | 5.2 ± 0.4 µM | – | 0.47 ± 0.09 Trolox equivalents (TE) | – | –
3 | CCCCCCCC(=O)CCc1ccc(O)c(OC)c1 [Compound 3, 4,5-dihydro-6-shogaol] | 45.2 ± 2.7 µM | – | -/11.0 ± 0.7% | – | 2.1 ± 1 µM | – | 1.36 ± 0.02 Trolox equivalents (TE) | – | –
4 | CCCCCc1cc(/C=C/c2ccc(O)c(OC)c2)on1 [Compound 17, (E)-2-methoxy-4-(2-(3-pentylisoxazol-5-yl)vinyl)phenol] | 10.9 ± 2 µM | – | – | – | 3.1 ± 0.9 µM | – | 0.77 ± 0.20 Trolox equivalents (TE) | – | –
5 | CCCCC[C@H](O)C[C@H](O)CCc1ccc(O)c(OC)c1 [Compound 5, (3R,5S)-1-(4-hydroxy-3-methoxyphenyl)decane-3,5-diol] | – | 3.39 ×10⁻⁶ cm/s | 9.1 ± 7.6% | ≥ 25 ·10^−7 cm/s | 51.7 ± 2.7 µM | – | 2.30 ± 0.05 Trolox equivalents (TE) | – | –
6 | CCCCC[C@H](O)C[C@@H](O)CCc1ccc(O)c(OC)c1 [Compound 6, (3S,5S)-1-(4-hydroxy-3-methoxyphenyl)decane-3,5-diol] | – | 2.74 ± 0.16 ×10⁻⁶ cm/s | 18.5 ± 2.7% | ≥ 25 ·10^−7 cm/s | 45.1 ± 6 µM | – | 1.12 ± 0.03 Trolox equivalents (TE) | – | –
7 | CCCCC[C@H](O)CC(=O)CCc1ccc(O)c(OC)c1 [Compound 1, (S)-5-hydroxy-1-(4-hydroxy-3-methoxyphenyl)decan-3-one] | – | 3.52 ± 0.24 ×10⁻⁶ cm/s | 23.8 ± 1.5% | ≥ 25 ·10^−7 cm/s | 45.9 ± 5.1 µM | – | 1.30 ± 0.04 Trolox equivalents (TE) | up to 22 times | –
8 | CCCCCCCNC(=O)CCc1ccc(O)c(OC)c1 [Compound 22] | – | 3.22 ± 0.34 ×10⁻⁶ cm/s | 12.1 ± 5.2% | ≥ 25 ·10^−7 cm/s | 35.9 ± 23.7 µM | – | 1.62 ± 0.004 Trolox equivalents (TE) | – | only moderate activity

The next lines start with results.

Row | solubility kinetic at 2 h [1] | Papp at 4 h, 500 μM (PAMPA-BBB permeability) | PAMPA-BBB MR (%) (PAMPA-BBB permeability) | PAMPA-BBB Pe (PAMPA-BBB permeability) | IC50 (washed human platelets) | Kinetic Solubility [1] | Compound | ORAC TE [2] | times weaker antiplatelet effect than the most promising compounds (washed human platelets; AA-induced platelet aggregation, ratio of IC50 values) | antiplatelet activity (in words) (washed human platelets; AA-induced platelet aggregation)
9 | 89.4 ± 3.1 µM | – | – | – | 3.5 ± 0.9 µM | – | CCCCCc1cc(/C=C/c2ccc(O)cc2)[nH]n1 [Compound 16, (E)-4-(2-(3-pentyl-1H-pyrazol-5-yl)vinyl)phenol] | 2.88 ± 0.16 Trolox equivalents (TE) | – | –
10 | 277 ± 5.5 µM | 1.58 ± 0.08 ×10⁻⁶ cm/s | 33.6 ± 4.6% | – | 4.1 ± 1.2 µM | – | CCCCCc1cc(CCc2ccc(O)c(OC)c2)[nH]n1 [Compound 14, 2-methoxy-4-(2-(3-pentyl-1H-pyrazol-5-yl)ethyl)phenol] | 0.44 ± 0.07 Trolox equivalents (TE) | – | –
11 | – | – | – | – | 32 ± 10.1 µM | < LOD | CCCCCc1cc(/C=C/c2ccc(O)cc2)on1 [Compound 18, (E)-4-(2-(3-pentylisoxazol-5-yl)vinyl)phenol] | 1.76 ± 0.06 Trolox equivalents (TE) | – | –
12 | 203 ± 5.5 µM | 2.07 ± 0.43 ×10⁻⁶ cm/s | 3.1 ± 5.7% | – | > 100 µM | – | CCCCCc1cc(CCc2ccc(O)cc2)[nH]n1 [Compound 15, 4-(2-(3-pentyl-1H-pyrazol-5-yl)ethyl)phenol] | 1.00 ± 0.02 Trolox equivalents (TE) | – | –
